The source of these data is the supplement of paper PMC9103864.

Test [1] deals with BMSC (primary human bone marrow mesenchymal stromal cells). The experiment in a line: absolute EC50 for viability; higher = less sensitive.
The test system is the same in test [2]. Briefly: drug sensitivity score (DSS); higher = more sensitive.

Each structure is given as a SMILES string.

For the compound `COC(=O)c1ccc([C@H]2c3[nH]c4ccccc4c3C[C@H](C(=O)OC)N2C(=O)CCl)cc1` [RSL3], the “absolute EC50 for viability” value in test [1] was more than 10 µM. For the same compound, in test [2], the drug sensitivity score is 0.
For `CNC(=O)c1ccc(-c2cnc3ncc(Cc4ccc5ncccc5c4)n3n2)cc1F` [Capmatinib], in that order: more than 1 µM and 0.5.
For `CCN(CC)C(=S)SSC(=S)N(CC)CC` [Disulfiram], the “absolute EC50 for viability” value in test [1] is more than 50 µM. Besides, the drug sensitivity score in test [2] stood at 0.
Turning to `Cc1c2oc3c(C)ccc(C(=O)N[C@@H]4C(=O)N[C@H](C(C)C)C(=O)N5CCC[C@H]5C(=O)N(C)CC(=O)N(C)[C@@H](C(C)C)C(=O)O[C@@H]4C)c3nc-2c(C(=O)N[C@@H]2C(=O)N[C@H](C(C)C)C(=O)N3CCC[C@H]3C(=O)N(C)CC(=O)N(C)[C@@H](C(C)C)C(=O)O[C@@H]2C)c(N)c1=O` [Dactinomycin], in test [1], the “absolute EC50 for viability” value came out at 0.0507 µM. Moreover, the drug sensitivity score in test [2] amounted to 19.
On the same counts, the results for `O=C(CCCCCCC(=O)Nc1ccc([C@H]2O[C@@H](CSc3nc(-c4ccccc4)c(-c4ccccc4)o3)C[C@@H](c3ccc(CO)cc3)O2)cc1)NO` [Tubacin] are more than 10 µM and 0.
Take `CCC1=C[C@@H]2CN(C1)Cc1c([nH]c3ccccc13)[C@@](C(=O)OC)(c1cc3c(cc1OC)N(C)[C@H]1[C@@](O)(C(=O)OC)[C@H](OC(C)=O)[C@]4(CC)C=CCN5CC[C@]31[C@@H]54)C2` [Vinorelbine]: the “absolute EC50 for viability” value in test [1] is 1.12 µM. Moreover, the drug sensitivity score in test [2] is 16.5.
On the same counts, the results for `CC[C@@H](C(=O)[C@@H](C)[C@@H](O)[C@H](C)[C@@H]1O[C@@H]([C@@H](CC)C(=O)O)CC[C@@H]1C)[C@H]1O[C@]2(C=C[C@@H](O)[C@]3(CC[C@@](C)([C@H]4CC[C@](O)(CC)[C@H](C)O4)O3)O2)[C@H](C)C[C@@H]1C` [Salinomycin] are 1.53 µM and 16.8.
On the same counts, the results for `C[C@]12CC[C@@H]3c4ccc(O)cc4C[C@@H](CCCCCCCCC[S+]([O-])CCCC(F)(F)C(F)(F)F)[C@H]3[C@@H]1CC[C@@H]2O` (stereo not given in full) [Fulvestrant] are more than 1 µM and 0.
For `Nc1ccn([C@@H]2O[C@H](CO)[C@@H](O)C2(F)F)c(=O)n1` [Gemcitabine], in that order: more than 1 µM and 4.5.
Consider `CCOC(=O)C1=CCCC[C@H]1S(=O)(=O)Nc1ccc(F)cc1Cl` [Resatorvid], for which, in test [1], the “absolute EC50 for viability” value was found to be 9.93 µM. In test [2], this compound yielded a drug sensitivity score of 0.
On the same counts, the results for `C/C=C1\NC(=O)[C@H]2CSSCC/C=C/[C@H](CC(=O)N[C@H](C(C)C)C(=O)N2)OC(=O)[C@H](C(C)C)NC1=O` [Romidepsin] are 0.0097 µM and 23.2.
For `CC[C@@H]1C(=O)N(C)c2cnc(Nc3ccc(C(=O)N[C@H]4CC[C@H](N5CCN(CC6CC6)CC5)CC4)cc3OC)nc2N1C(C)C` [Volasertib], in that order: more than 1 µM and 1.5.
For `NC(=O)c1cccc(-c2cccc(OC(=O)NC3CCCCC3)c2)c1` [URB597], the “absolute EC50 for viability” value in test [1] was more than 1 µM. In addition, in test [2], the drug sensitivity score was determined as 0.
Regarding `Cc1ccc(=O)n(-c2ccccc2)c1` [Pirfenidone], the “absolute EC50 for viability” value in test [1] is more than 10 µM. The drug sensitivity score in test [2] is 0.
On the same counts, the results for `C[C@@H](Oc1cc(-n2cnc3ccc(CN4CCN(C)CC4)cc32)sc1C(N)=O)c1ccccc1C(F)(F)F` are 1.89 µM and 8.
For `CON(C)C(=O)N1N=C(c2cc(F)ccc2F)S[C@@]1(CCCN)c1ccccc1` [Filanesib], in that order: more than 1 µM and 0.
As for `CN(C)Cc1c(C(=O)NCCOc2ccc(C(=O)NO)cc2)oc2ccccc12` [Abexinostat], in test [1], the “absolute EC50 for viability” value was determined as 1.28 µM. Further, the drug sensitivity score in test [2] amounted to 10.1.
On to `COc1ccc(CCc2nc3cc(-c4c(C)noc4C)ccc3n2C[C@H](C)N2CCOCC2)cc1Cl` [SGC-CBP30], for which the “absolute EC50 for viability” value in test [1] is more than 25 µM. This compound had a drug sensitivity score in test [2] of 2.1.
Regarding `CC(C)c1cc(-c2n[nH]c(=O)n2-c2ccc3c(ccn3C)c2)c(O)cc1O` [Ganetespib], the “absolute EC50 for viability” value in test [1] amounted to 0.0862 µM. In addition, in test [2], the drug sensitivity score amounted to 10.3.
On the same counts, the results for `Cc1cccc(CC(=O)N2CCc3c2ccc(-c2cn(C)c4ncnc(N)c24)c3F)n1` are more than 2.5 µM and 0.
On the same counts, the results for `CC(C)C[C@@H](C(=O)N[C@H](C(=O)OC1CCCC1)c1ccccc1)[C@H](O)C(=O)NO` [Tosedostat] are more than 10 µM and 0.
For `C[C@H](Nc1ncnc2nc[nH]c12)c1cc2cccc(Cl)c2c(=O)n1-c1ccccc1` [Duvelisib], in that order: more than 0.5 µM and 0.6.
`CN(C)CCCOc1ccc(-c2ccc3ncc4c(c3c2)n(C2CCOCC2)c(=O)n4C)cn1` [AZD0156]: in test [1], the “absolute EC50 for viability” value is more than 1 µM. The same compound showed a drug sensitivity score in test [2] of 1.9.
Regarding `COc1cc(OC)c(/C=C/S(=O)(=O)Cc2ccc(OC)c(NCC(=O)O)c2)c(OC)c1` [Rigosertib], the “absolute EC50 for viability” value in test [1] is more than 10 µM. In test [2], this compound had a drug sensitivity score of 8.9.
On the same counts, the results for `CC1CCC(n2c3cnccc3c3cnc(Nc4ccc5c(n4)CCN(C(=O)CO)C5)nc32)CC1` (stereo not given) [AMG-925] are more than 1 µM and 0.
For `CNC(=O)c1cc(COc2nnc(Nc3ccc(Cl)cc3)c3ccoc23)ccn1` [Telatinib], in that order: more than 10 µM and 4.2.
For `CN(C)c1cc2c(cc1Sc1nc3c(N)nccc3n1CCNCC(C)(C)C)OCO2` [CUDC-305], in that order: 1.15 µM and 8.8.
As to `C=CC(=O)Nc1cccc(Nc2nc(Nc3ccc(OCCOC)cc3)ncc2F)c1` [Spebrutinib], the “absolute EC50 for viability” value in test [1] was more than 1 µM. Also, the drug sensitivity score in test [2] amounted to 1.2.
Consider `C[C@@]1(C(=O)Nc2ccc(F)nc2)CCCN1c1nc(Nc2cc(C3CC3)n[nH]2)c2cccn2n1`, for which, in test [1], the “absolute EC50 for viability” value turned out to be 7.74 µM. The compound further came in with a drug sensitivity score in test [2] of 9.3.
On the same counts, the results for `C=CCn1c(=O)c2cnc(Nc3ccc(N4CCN(C)CC4)cc3)nc2n1-c1cccc(C(C)(C)O)n1` [AZD1775] are more than 10 µM and 4.8.
For `C[C@@H]1COC(Nc2ccc3ncnc(Nc4ccc(OCc5nccs5)c(Cl)c4)c3c2)=N1` [Varlitinib], in that order: more than 10 µM and 0.4.
`CC[C@@](C)(Nc1ccnc(-c2c[nH]c3ncccc23)n1)C(=O)NCC(F)(F)F` [Decernotinib]: the “absolute EC50 for viability” value in test [1] is more than 10 µM. In addition, the drug sensitivity score in test [2] came to 0.4.
In the case of `COc1cc(Br)c(Nc2nc(-c3c(C)nc4ncccn34)cs2)c(Br)c1` [PTC-209], in test [1], the “absolute EC50 for viability” value was more than 10 µM. The drug sensitivity score in test [2] turned out to be 4.
Consider `CNC(=O)c1cccc(-c2ccc3c(N4CCOC[C@@H]4C)nc(N4CCOC[C@@H]4C)nc3n2)c1` [Vistusertib], for which the “absolute EC50 for viability” value in test [1] worked out at 0.488 µM. This compound showed a drug sensitivity score in test [2] of 13.7.
On the same counts, the results for `c1cn2cc(-c3ccc4cn[nH]c4c3)nc(Nc3ccc(N4CCOCC4)cc3)c2n1` [Entospletinib] are more than 5 µM and 0.
